Experimental data taken from patent US4814353A, “Therapeutic and prophylactic agent for gastritis” (Eisai Co., Ltd., priority 1985, dated 1989).

Legend:
Solubility = assay type: physicochemical
[1] = Clinical instances, acute gastritis, peroral teprenone (symptoms, endoscopy, side effects); assay type: in vivo, human; details: 150 mg per day perorally; for subjective symptoms: acute gastritis, 3 days after administration; for endoscopy, lesion of tunica mucosa ventriculi: 5 days after administration
Source text: (§1) Specific clinical instances will be illustrated to substantiate the effect of the present invention. In the clinical instances, "teprenone" refers to a compound according to the present invention (teprenone is 6,10,14,18-tetramethyl-;b 5,9,13,17-nonadecatetraen-2-one with n=4 in the general formula (I)).
person: actute gastritis
The instance is concerned with a person who visited a hospital while mainly complaining of epigastralgia.
The subjective symptoms included not only severe epigastralgia but also medium nausea, emesis, anorexia, slight pyrosis, abdominal flatulence, abdominal oppression, gastric dysphoria, and eructation.
150 mg per day of teprenone, which is a compound according to the present invention, was perorally administered to the patient.
person: acute gastritis
The conditions of te patient before administration were as follows.
The subjective symptoms included severe epigastralgia, anorexia, medium pyrosis, nausea, emesis, abdominal flatulence, gastric dysphoria, slight abdominal oppression, and eructation.
In endoscopy before administration, lesion of tunica mucosa ventriculi was recognized in the vestibulum (paries anterior venticuli, curvatura ventriculi minor, paries posterior ventriculi) and angularis (paries anterior ventriculi, curvatura ventriculi minor, paries posterior ventriculi).
(§2) 150 mg per day of teprenone, which is the compound according to the present invention, was perorally administered to the patient.

[2] = Clinical instances, acute animus state/stage of chronic gastritis, peroral teprenone (symptoms, endoscopy, side effects); assay type: in vivo, human; details: 150 mg per day perorally
Source text: as §1
person: acute animus state of chronic gastritis
The conditions of the patient before administration were as follows.
The patient complained of subjective symptoms including severe pyrosis, eructation, and slight nausea and emesis. Lesion of mucosa ventriculi was endoscopically recognized in the curvature ventriculi major of the vestibulum.
as §2
(§3) person: acute animus stage of chronic gastritis
The conditions of the patient before administration were as follows. The patient complained of medium epigastralgia, slight abdominal oppression, gastric dysphoria, and anorexia. Lesion of tunica mucosa ventriculi was endoscopically recognized in the curvatura ventriculi minor of the angularis and the curvatura ventriculi minor of the corpus ventriculi.
as §3
The subjective symptoms included epigastralgia, pyrosis, abdominal oppression, gastric dysphoria, and eructation. The levels of them were all medium.
Endoscopically, lesion was recognized in the vestibulum (paries anterior ventriculi, curvatura ventriculi minor, paries posterior ventriculi).

[3] = Acute toxicity test, mouse (ICR); details: in vivo
Source text: (§4) |Acute Toxicity LD50 (mg/μg)

[4] = Acute toxicity test, rat (SD); details: in vivo
Source text: as §4

[5] = Acute toxicity test, dog (beagle); details: in vivo, po, male, peroral
Source text: as §4

[6] = Clinical Instance 5, after two weeks

Compound: CC(=O)CCC=C(C)CCC=C(C)CCC=C(C)CCC=C(C)C (mixture of isomers) [3:2 mixture of (5E,9E,13E)-6,10,14,18-tetramethyl-5,9,13,17-nonadecatetraen-2-one and (5Z,9E,13E)-6,10,14,18-tetramethyl-5,9,13,17-nonadecatetraen-2-one]
- solubility in organic solvents (Solubility; organic solvents): soluble in organic solvents
- solubility in water (Solubility; water): hardly soluble in water

Compound: CC(=O)CCC=C(C)CCC=C(C)CCC=C(C)CCC=C(C)C [teprenone, 6,10,14,18-tetramethyl-5,9,13,17-nonadecatetraen-2-one]
- subjective symptoms ([1]; Clinical Instance 1, person): all the symptons disappeared
- observation of clinical inspection ([1]; Clinical Instance 1): no abnormality was recognized
- side effects ([1]; Clinical Instance 1): no side effect altogether
- endoscopy, lesion of tunica mucosa ventriculi ([1]; Clinical Instance 1): disappearance of the lesion of the tunica mucosa ventriculi was recognized
- subjective symptoms ([1]; Clinical Instance 3, person): all the symptoms disappeared
- observation of clinical inspection ([1]; Clinical Instance 3): no lesion was recognized
- side effects ([1]; Clinical Instance 3): no side effects altogether
- endoscopy, lesion of tunica mucosa ventriculi ([1]; Clinical Instance 3): disappearance of the lesion of tunica mucosa ventriculi was recognized
- subjective symptoms ([2]; Clinical Instance 2, person, chronic gastritis, 3 days after administration): all the symptoms disappeared
- side effects, including observation of clinical inspection ([2]; Clinical Instance 2): No side effects were recognized altogether
- endoscopy, lesion of tunica mucosa ventriculi ([2]; Clinical Instance 2, 16 days after administration): disappearance of the lesion of tunica mucosa ventriculi was recognized
- subjective symptoms ([2]; Clinical Instance 4, person, chronic gastritis, 3 days after administration): substantially all the symptoms disappeared except that slight epigastralgia remained
- side effects, including observation of clinical inspection ([2]; Clinical Instance 4): No side effects were recognized altogether
- epigastralgia ([2]; Clinical Instance 4, 5 days after administration): the epigastralgia also disappeared
- endoscopy, lesion of tunica mucosa ventriculi ([2]; Clinical Instance 4, 14 days after administration): disappearance of the lesion of tunica mucosa ventriculi was recognized
- subjective symptoms ([2]; Clinical Instance 5, person, chronic gastritis, 3 days after administration): the abdominal oppression, the gastric dysphoria, and the eructation were mitigated, but the epigastralgia and the pyrosis remained unchanged
- side effects ([2]; Clinical Instance 5): No side effects were regonized
- subjective symptoms ([2]; Clinical Instance 5, a week after administration): all the symptoms disappeared except for slight eructation
- endoscopy, lesion of tunica mucosa ventriculi [2, 6]: the lesion of tunica mucosa ventriculi disappeared in all parts
- eructation [2, 6]: The eructation remained
- LD50 ([3]; im, female, intramuscular): > 5000 mg/kg
- LD50 ([3]; im, male, intramuscular): > 5000 mg/kg
- LD50 ([3]; ip, female, intraperitoneal): 3850 mg/kg
- LD50 ([3]; ip, male, intraperitoneal): 3750 mg/kg
- LD50 ([3]; po, female, peroral): > 15000 mg/kg
- LD50 ([3]; po, male, peroral): > 15000 mg/kg
- LD50 ([3]; sc, female, subcutaneous): > 10000 mg/kg
- LD50 ([3]; sc, male, subcutaneous): > 10000 mg/kg
- LD50 ([4]; im, female, intramuscular): > 5000 mg/kg
- LD50 ([4]; im, male, intramuscular): > 5000 mg/kg
- LD50 ([4]; ip, female, intraperitoneal): 3500 to 5000 mg/kg
- LD50 ([4]; ip, male, intraperitoneal): > 5000 mg/kg
- LD50 ([4]; po, female, peroral): > 15000 mg/kg
- LD50 ([4]; po, male, peroral): > 15000 mg/kg
- LD50 ([4]; sc, female, subcutaneous): > 10000 mg/kg
- LD50 ([4]; sc, male, subcutaneous): > 10000 mg/kg
- LD50 [5]: > 1000 mg/kg
